Results published in ChEMBL document CHEMBL1909046, “DrugMatrix in vitro pharmacology data”.

Key:
[1] = DRUGMATRIX: Sodium/nucleoside co-transporter radioligand binding (ligand: nitrobenzylthioinosine); type: cell membranes, Cavia porcellus, Dunkin-Hartley, Cerebral cortex, Membrane; settings: Not Active = under 50% inhibition at 10 µM
[2] = DRUGMATRIX: Leukotriene, BLT (LTB4) radioligand binding (ligand: [3H]LTB4); type: cell membranes, Membrane; settings: u-937; Not Active = under 50% inhibition at 10 µM
[3] = DRUGMATRIX: Atrial Natriuretic Factor (ANF) radioligand binding (ligand: [125I] ANF (rat)); type: cell membranes, Cavia porcellus, Dunkin-Hartley, Adrenal gland, Membrane; settings: Not Active = under 50% inhibition at 10 µM
Adenosine receptor A3 = molecular target: T1, Adenosine receptor A3 (Homo sapiens, UniProt P0DMS8); type: cell membranes, CHO-K1, Membrane; settings: cho-k1;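 further: radioligand binding assay with AB-MECA serving as the labeled ligand; in other assays of this panel Not Active means under 50% inhibition at 10 µM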
T1 sequence (P0DMS8 whole entry): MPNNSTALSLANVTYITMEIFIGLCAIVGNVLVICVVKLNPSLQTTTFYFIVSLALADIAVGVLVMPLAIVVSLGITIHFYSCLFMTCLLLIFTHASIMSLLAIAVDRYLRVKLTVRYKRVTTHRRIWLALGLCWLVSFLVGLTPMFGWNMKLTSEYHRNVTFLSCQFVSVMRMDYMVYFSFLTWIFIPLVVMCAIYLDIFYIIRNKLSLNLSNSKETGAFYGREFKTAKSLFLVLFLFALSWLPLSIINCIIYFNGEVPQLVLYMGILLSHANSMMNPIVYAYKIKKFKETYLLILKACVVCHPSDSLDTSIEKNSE

[4] = molecular target: T2, Alpha-1D adrenergic receptor (Homo sapiens, UniProt P25100); type: cell membranes, HEK293, Membrane; settings: for Ki: read-out: Ki; on all read-outs here: in other assays of this panel Not Active means under 50% inhibition at 10 µM
T2 sequence (P25100 whole entry): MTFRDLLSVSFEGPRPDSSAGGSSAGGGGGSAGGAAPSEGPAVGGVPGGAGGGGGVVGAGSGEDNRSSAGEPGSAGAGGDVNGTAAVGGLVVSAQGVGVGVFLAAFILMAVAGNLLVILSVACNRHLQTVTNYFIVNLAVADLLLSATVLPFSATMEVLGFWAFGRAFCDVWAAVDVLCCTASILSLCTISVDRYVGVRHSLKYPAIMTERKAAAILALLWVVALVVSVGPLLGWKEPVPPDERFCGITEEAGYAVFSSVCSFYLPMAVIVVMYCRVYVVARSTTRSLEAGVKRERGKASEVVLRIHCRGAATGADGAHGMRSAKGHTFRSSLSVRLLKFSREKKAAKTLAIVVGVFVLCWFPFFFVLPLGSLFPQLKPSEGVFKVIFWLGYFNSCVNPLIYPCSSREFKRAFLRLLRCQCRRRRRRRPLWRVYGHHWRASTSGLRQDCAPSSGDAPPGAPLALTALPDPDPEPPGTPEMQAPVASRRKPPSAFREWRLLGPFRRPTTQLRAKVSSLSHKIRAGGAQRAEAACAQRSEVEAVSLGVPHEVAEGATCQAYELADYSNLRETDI

[5] = molecular target: T3, Alpha-2A adrenergic receptor (Homo sapiens, UniProt P08913); type: cell membranes, Sf9, Membrane; further: in other assays of this panel Not Active means under 50% inhibition at 10 µM
T3 sequence (P08913 whole entry): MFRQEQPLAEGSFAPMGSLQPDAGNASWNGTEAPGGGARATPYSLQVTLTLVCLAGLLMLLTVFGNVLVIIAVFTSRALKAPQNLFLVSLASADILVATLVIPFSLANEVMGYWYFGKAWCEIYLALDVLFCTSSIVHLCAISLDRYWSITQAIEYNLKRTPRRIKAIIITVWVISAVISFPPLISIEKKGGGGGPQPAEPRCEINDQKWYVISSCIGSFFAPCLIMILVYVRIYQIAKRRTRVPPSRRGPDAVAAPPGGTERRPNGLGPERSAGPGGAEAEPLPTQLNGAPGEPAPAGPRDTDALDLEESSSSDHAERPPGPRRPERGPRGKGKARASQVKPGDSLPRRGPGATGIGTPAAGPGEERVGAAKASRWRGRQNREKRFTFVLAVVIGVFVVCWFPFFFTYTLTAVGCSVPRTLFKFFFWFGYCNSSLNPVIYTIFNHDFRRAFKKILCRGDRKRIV

Adenosine receptor A2a = Adenosine receptor A2a (Homo sapiens, UniProt P29274); test: DRUGMATRIX: Adenosine A2A radioligand binding (ligand: […]); type: cell membranes, HEK293, Membrane; settings: hek293; Not Active = under 50% inhibition at 10 µM
[6] = molecular target: T4, Muscarinic acetylcholine receptor M2 (Homo sapiens, UniProt P08172); type: cell membranes, CHO-K1, Membrane; further: in other assays of this panel Not Active means under 50% inhibition at 10 µM
T4 sequence (P08172 whole entry): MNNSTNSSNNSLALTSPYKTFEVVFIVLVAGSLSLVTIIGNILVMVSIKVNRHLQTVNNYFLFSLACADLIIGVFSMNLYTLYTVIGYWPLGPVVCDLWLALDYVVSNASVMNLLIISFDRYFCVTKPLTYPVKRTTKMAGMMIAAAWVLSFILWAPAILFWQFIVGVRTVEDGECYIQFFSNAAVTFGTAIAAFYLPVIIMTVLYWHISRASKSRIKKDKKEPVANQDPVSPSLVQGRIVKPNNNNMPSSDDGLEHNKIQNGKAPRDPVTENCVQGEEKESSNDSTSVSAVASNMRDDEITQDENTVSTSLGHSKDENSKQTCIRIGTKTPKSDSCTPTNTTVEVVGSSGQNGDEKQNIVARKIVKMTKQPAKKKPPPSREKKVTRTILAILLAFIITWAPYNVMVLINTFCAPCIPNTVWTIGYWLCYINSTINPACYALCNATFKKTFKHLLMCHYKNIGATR

[7] = DRUGMATRIX: Glutamate, NMDA, Agonism radioligand binding (ligand: [3H] CGP-39653); type: cell membranes, Rattus norvegicus, Wistar, Cerebral cortex, Membrane; settings: Not Active = under 50% inhibition at 10 µM
Melanocortin receptor 5 = Melanocortin receptor 5 (Homo sapiens, UniProt P33032); type: cell membranes, HEK293, Membrane; settings: hek293; further: in other assays of this panel Not Active means under 50% inhibition at 10 µM
Substance-P receptor = Substance-P receptor (Homo sapiens, UniProt P25103); type: cell membranes, CHO, Membrane; settings: cho; further: in other assays of this panel Not Active means under 50% inhibition at 10 µM
[8] = molecular target: Aldo-keto reductase family 1 member B1 (Rattus norvegicus, UniProt P07943); type: tissue-based, Lens of camera-type eye

Chain of Melanocortin receptor 5 (P33032 whole entry): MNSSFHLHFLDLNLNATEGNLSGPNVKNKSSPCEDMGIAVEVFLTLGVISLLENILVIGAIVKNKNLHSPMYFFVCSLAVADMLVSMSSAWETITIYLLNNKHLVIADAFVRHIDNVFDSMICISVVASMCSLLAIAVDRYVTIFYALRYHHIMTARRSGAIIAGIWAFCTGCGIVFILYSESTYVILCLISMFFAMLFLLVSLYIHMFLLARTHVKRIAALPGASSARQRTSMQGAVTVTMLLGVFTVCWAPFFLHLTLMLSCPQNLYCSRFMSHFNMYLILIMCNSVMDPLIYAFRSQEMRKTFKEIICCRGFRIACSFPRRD
Chain of Substance-P receptor (P25103 whole entry): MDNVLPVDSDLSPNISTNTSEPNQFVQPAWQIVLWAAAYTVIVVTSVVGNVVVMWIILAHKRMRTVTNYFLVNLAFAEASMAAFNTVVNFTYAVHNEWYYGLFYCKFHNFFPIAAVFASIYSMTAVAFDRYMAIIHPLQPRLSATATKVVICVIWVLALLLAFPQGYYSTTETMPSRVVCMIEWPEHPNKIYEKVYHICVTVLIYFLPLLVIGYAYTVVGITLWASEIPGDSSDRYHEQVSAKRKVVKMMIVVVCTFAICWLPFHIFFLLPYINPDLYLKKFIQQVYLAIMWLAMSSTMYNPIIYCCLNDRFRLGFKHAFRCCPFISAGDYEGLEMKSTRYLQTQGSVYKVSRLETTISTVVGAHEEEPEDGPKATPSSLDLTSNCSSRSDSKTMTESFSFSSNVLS
Chain of Adenosine receptor A2a (P29274 whole entry): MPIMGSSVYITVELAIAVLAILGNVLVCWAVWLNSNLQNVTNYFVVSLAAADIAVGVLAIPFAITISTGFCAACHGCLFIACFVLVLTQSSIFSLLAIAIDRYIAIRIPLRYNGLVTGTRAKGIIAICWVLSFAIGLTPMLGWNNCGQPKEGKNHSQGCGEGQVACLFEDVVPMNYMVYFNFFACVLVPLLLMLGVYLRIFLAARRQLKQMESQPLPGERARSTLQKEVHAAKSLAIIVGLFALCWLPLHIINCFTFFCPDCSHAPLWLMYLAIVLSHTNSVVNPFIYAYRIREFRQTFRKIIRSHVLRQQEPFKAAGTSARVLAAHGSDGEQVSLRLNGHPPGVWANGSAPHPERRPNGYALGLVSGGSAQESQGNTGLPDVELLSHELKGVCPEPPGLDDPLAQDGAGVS

SMILES	IC50 [1]	Ki [1]	IC50 [2]	Ki [2]	IC50 [3]	Ki [3]	IC50 (Adenosine receptor A3)	IC50 ([5]; sf9)	IC50 (Adenosine receptor A2a)	IC50 ([6]; cho-k1)	IC50 [7]	Ki [7]	IC50 (Melanocortin receptor 5)	IC50 (Substance-P receptor)	IC50 [8]	IC50 ([4]; hek293)	also measured
Cc1ccccc1N1CCN(CCc2nnc3n2CCCC3)CC1 [DAPIPRAZOLE]	Not Active	Not Active	Not Active	Not Active	Not Active	Not Active	Not Active	Not Active	Not Active	Not Active	Not Active	Not Active	Not Active	Not Active	Not Active		IC50 ([4]; read-out: IC50): 8.31 nM; Ki [4]: 4.09 nM
CC1=Nc2ccc(Cl)cc2S(=O)(=O)N1 [DIAZOXIDE]	Not Active	Not Active	Not Active	Not Active	Not Active	Not Active	Not Active	Not Active	Not Active	Not Active	Not Active	Not Active	Not Active	Not Active	Not Active	Not Active	
CC(=O)OCC(=O)[C@@]1(OC(C)=O)[C@@H](C)C[C@H]2[C@@H]3C[C@H](F)C4=CC(=O)C=C[C@]4(C)[C@@]3(F)[C@@H](O)C[C@@]21C [DIFLORASONE DIACETATE]	Not Active	Not Active	Not Active	Not Active	Not Active	Not Active	Not Active	Not Active	Not Active	Not Active	Not Active	Not Active	Not Active	Not Active	Not Active	Not Active	
COc1ccc([C@@H]2Sc3ccccc3N(CCN(C)C)C(=O)[C@@H]2OC(C)=O)cc1 [DILTIAZEM]	Not Active	Not Active	Not Active	Not Active	Not Active	Not Active	Not Active	Not Active	Not Active	Not Active	Not Active	Not Active	Not Active	Not Active	Not Active	Not Active	
CCc1ccc(C(=O)C(C)CN2CCCCC2)cc1 (centres undefined) [EPERISONE]	Not Active	Not Active	Not Active	Not Active	Not Active	Not Active	Not Active	Not Active	Not Active		Not Active	Not Active	Not Active	Not Active	Not Active	Not Active	IC50 ([6]; read-out: IC50): 2340 nM; Ki ([6]; read-out: Ki): 831 nM
C=C1CC[C@H](O)C/C1=C/C=C1\CCC[C@]2(C)[C@@H]([C@H](C)/C=C/[C@H](C)C(C)C)CC[C@@H]12 [ERGOCALCIFEROL]	Not Active	Not Active	Not Active	Not Active	Not Active	Not Active	Not Active	Not Active	Not Active	Not Active	Not Active	Not Active	Not Active	Not Active	Not Active	Not Active	
CN1C[C@H](C(=O)N[C@]2(C)O[C@@]3(O)[C@@H]4CCCN4C(=O)[C@H](Cc4ccccc4)N3C2=O)C=C2c3cccc4[nH]cc(c34)C[C@H]21 [ERGOTAMINE]	Not Active	Not Active	Not Active	Not Active	Not Active	Not Active	Not Active		Not Active	Not Active	Not Active	Not Active	Not Active	Not Active	Not Active		IC50 ([4]; read-out: IC50): 49 nM; Ki [4]: 24 nM; IC50 ([5]; read-out: IC50): 2.12 nM; Ki ([5]; read-out: Ki): 0.796 nM
CCc1cccc2c3c([nH]c12)C(CC)(CC(=O)O)OCC3 (centres undefined) [ETODOLAC]	Not Active	Not Active	Not Active	Not Active	Not Active	Not Active	Not Active	Not Active	Not Active	Not Active	Not Active	Not Active	Not Active	Not Active	Not Active	Not Active	
Cc1c(-c2ccccc2)oc2c(C(=O)OCCN3CCCCC3)cccc2c1=O [FLAVOXATE]	Not Active	Not Active	Not Active	Not Active	Not Active	Not Active	Not Active	Not Active	Not Active	Not Active	Not Active	Not Active	Not Active	Not Active	Not Active	Not Active	
Nc1nc(=O)[nH]cc1F [FLUCYTOSINE]	Not Active	Not Active	Not Active	Not Active	Not Active	Not Active	Not Active	Not Active	Not Active	Not Active	Not Active	Not Active	Not Active	Not Active	Not Active	Not Active	
